{"source": "patent US11591336B2", "about": "(Relay Therapeutics, Inc., priority 2017, dated 2023)", "note": "Counter-ions that a name gives are not always drawn.", "data": [{"biological_target": "SHP2 (Homo sapiens (Human), UniProt Q06124)", "sequence (Q06124 whole entry)": "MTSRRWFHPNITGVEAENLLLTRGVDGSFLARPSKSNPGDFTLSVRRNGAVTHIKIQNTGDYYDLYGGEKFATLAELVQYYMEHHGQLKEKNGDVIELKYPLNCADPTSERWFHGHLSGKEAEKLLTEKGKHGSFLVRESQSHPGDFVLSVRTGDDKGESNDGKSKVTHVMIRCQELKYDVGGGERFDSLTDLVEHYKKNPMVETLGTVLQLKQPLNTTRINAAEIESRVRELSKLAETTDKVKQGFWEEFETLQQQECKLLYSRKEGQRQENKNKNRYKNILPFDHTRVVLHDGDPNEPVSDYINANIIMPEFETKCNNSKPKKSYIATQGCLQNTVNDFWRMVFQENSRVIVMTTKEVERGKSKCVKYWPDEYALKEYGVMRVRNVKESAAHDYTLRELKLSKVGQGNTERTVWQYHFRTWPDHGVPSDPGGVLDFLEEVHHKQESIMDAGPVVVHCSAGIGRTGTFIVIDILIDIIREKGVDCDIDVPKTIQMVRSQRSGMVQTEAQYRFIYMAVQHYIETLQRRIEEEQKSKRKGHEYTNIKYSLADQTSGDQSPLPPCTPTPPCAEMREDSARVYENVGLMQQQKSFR", "assay": "SHP2 Allosteric Inhibition Assay (DiFMUP prompt fluorescence)", "assay_type": "biochemical", "conditions": "0.25 nM SHP2 activated with 0.5 μM peptide IRS1_pY1172(dPEG8)pY1222; substrate DiFMUP 100 μM; 25° C.", "units": {"IC50": "µM"}, "values": [{"smiles": "C[C@@H]1OCC2(CCN(c3cnc4c(N5CCCc6ncccc65)n[nH]c4n3)CC2)C1O", "note": "(stereo partly drawn) [Compound 201, (3S)-8-(3-(3,4-dihydro-1,5-naphthyridin-1(2H)-yl)-1H-pyrazolo[3,4-b]pyrazin-6-yl)-3-methyl-2-oxa-8-azaspiro[4.5]decan-4-ol]", "IC50": "≥ 10"}, {"smiles": "NC1=NCCC12CCN(c1cnc3c(N4CCCc5ncccc54)n[nH]c3n1)CC2", "note": "[Compound 202, 8-(3-(3,4-dihydro-1,5-naphthyridin-1(2H)-yl)-1H-pyrazolo[3,4-b]pyrazin-6-yl)-2,8-diazaspiro[4.5]dec-1-en-1-amine dihydrochloride]", "IC50": "< 1"}, {"smiles": "NC1CCCC12CCN(c1cnc3c(N4CCCc5ncccc54)n[nH]c3n1)C2", "note": "(stereo not drawn) [Compound 203, 2-(3-(3,4-dihydro-1,5-naphthyridin-1(2H)-yl)-1H-pyrazolo[3,4-b]pyrazin-6-yl)-2-azaspiro[4.4]nonan-6-amine]", "IC50": "1 to 10"}, {"smiles": "C[C@@H]1OCC2(CCN(c3cnc4c(N5CCCc6c5ccc(C#N)c6C5CC5)n[nH]c4n3)CC2)[C@@H]1N", "note": "[Compound 207]", "IC50": "< 1"}, {"smiles": "Cc1c(C#N)ccc2c1CCCN2c1n[nH]c2nc(N3CCC4(CC3)CO[C@@H](C)[C@H]4N)cnc12", "note": "[Compound 208]", "IC50": "< 1"}, {"smiles": "C[C@@H]1OCC2(CCN(c3cnc4c(N5CCCc6c(-c7cnn(C)c7)cccc65)n[nH]c4n3)CC2)[C@@H]1N", "note": "[Compound 209]", "IC50": "< 1"}, {"smiles": "C[C@@H]1OCC2(CCN(c3cnc4c(N5CCCc6c5ccc(C#N)c6-c5cnn(C)c5)n[nH]c4n3)CC2)[C@@H]1N", "note": "[Compound 210]", "IC50": "1 to 10"}, {"smiles": "N[C@H]1CCCC12CCN(c1cnc3c(N4CCCc5ncccc54)n[nH]c3n1)CC2", "note": "[Compound 211]", "IC50": "< 1"}, {"smiles": "N[C@@H]1CCCC12CCN(c1cnc3c(N4CCCc5ncccc54)n[nH]c3n1)CC2", "note": "[Compound 212]", "IC50": "< 1"}, {"smiles": "N[C@H]1COCC12CCN(c1cnc3c(N4CCCc5ncccc54)n[nH]c3n1)CC2", "note": "[Compound 213]", "IC50": "< 1"}, {"smiles": "N[C@@H]1COCC12CCN(c1cnc3c(N4CCCc5ncccc54)n[nH]c3n1)CC2", "note": "[Compound 214]", "IC50": "< 1"}, {"smiles": "O=C1NC2(CCN(c3cnc4c(N5CCCc6ncccc65)n[nH]c4n3)CC2)CO1", "note": "[Compound 215]", "IC50": "1 to 10"}, {"smiles": "NC1=NC2(CCN(c3cnc4c(N5CCCc6ncccc65)n[nH]c4n3)CC2)CO1", "note": "[Compound 216, 8-(3-(3,4-dihydro-1,5-naphthyridin-1(2H)-yl)-1H-pyrazolo[3,4-b]pyrazin-6-yl)-3-oxa-1,8-diazaspiro[4.5]dec-1-en-2-amine hydrochloride]", "IC50": "< 1"}, {"smiles": "C[C@@H]1OCC2(CCN(c3cnc4c(N5CCCc6cc(C#N)ccc65)n[nH]c4n3)CC2)[C@@H]1N", "note": "[Compound 217]", "IC50": "< 1"}, {"smiles": "CC1CCN(c2n[nH]c3nc(N4CCC5(CC4)CO[C@@H](C)[C@H]5N)cnc23)c2ccc(C#N)cc21", "note": "(stereo partly drawn) [Compound 218]", "IC50": "< 1"}, {"smiles": "C[C@@H]1CCN(c2n[nH]c3nc(N4CCC5(CC4)CO[C@@H](C)[C@H]5N)cnc23)c2ccc(C#N)cc21", "note": "[Compound 219]", "IC50": "< 1"}, {"smiles": "C[C@@H]1OCC2(CCN(c3cnc4c(N5CC[C@H](C)c6cc(C#N)ccc65)n[nH]c4n3)CC2)[C@@H]1N", "note": "[Compound 220]", "IC50": "< 1"}, {"smiles": "C[C@@H]1OCC2(CCN(c3cnc4c(N5CCc6c(-c7nccs7)cccc65)n[nH]c4n3)CC2)[C@@H]1N", "note": "[Compound 221]", "IC50": "< 1"}, {"smiles": "CC1CCN(c2n[nH]c3nc(N4CCC5(CC4)CNC(=O)C5)cnc23)c2cccnc21", "note": "(stereo not drawn) [Compound 222, 8-[3-(4-methyl-1,2,3,4-tetrahydro-1,5-naphthyridin-1-yl)-1H-pyrazolo[3,4-b]pyrazin-6-yl]-2,8-diazaspiro[4.5]decan-3-one]", "IC50": "1 to 10"}, {"smiles": "CC1CCN(c2n[nH]c3nc(N4CCC5(CC4)CO[C@@H](C)[C@H]5N)cnc23)c2cc(F)c(C#N)cc21", "note": "(stereo partly drawn) [Compound 223]", "IC50": "< 1"}, {"smiles": "C[C@@H]1OCC2(CCN(c3cnc4c(N5CCCc6nc(-c7cnn(C)c7)ccc65)n[nH]c4n3)CC2)[C@@H]1N", "note": "[Compound 224, (3S,4S)-3-methyl-8-(3-(6-(1-methyl-1H-pyrazol-4-yl)-3,4-dihydro-1,5-naphthyridin-1(2H)-yl)-1H-pyrazolo[3,4-b]pyrazin-6-yl)-2-oxa-8-azaspiro[4.5]decan-4-amine]", "IC50": "< 1"}, {"smiles": "C[C@@H]1OCC2(CCN(c3cnc4c(N5CCCc6c5ccnc6N5CCOC5=O)n[nH]c4n3)CC2)[C@@H]1N", "note": "[Compound 225]", "IC50": "< 1"}, {"smiles": "C[C@@H]1OCC2(CCN(c3cnc4c(N5CCCc6c5ccnc6-c5cnn(C)c5)n[nH]c4n3)CC2)[C@@H]1N", "note": "[Compound 226]", "IC50": "< 1"}, {"smiles": "C[C@@H]1OCC2(CCN(c3cnc4c(N5CC[C@H](C)c6cc(-c7ncon7)ccc65)n[nH]c4n3)CC2)[C@@H]1N", "note": "[Compound 227, (3S,4S)-3-methyl-8-(3-((S)-4-methyl-6-(1,2,4-oxadiazol-3-yl)-3,4-dihydroquinolin-1(2H)-yl)-1H-pyrazolo[3,4-b]pyrazin-6-yl)-2-oxa-8-azaspiro[4.5]decan-4-amine]", "IC50": "< 1"}, {"smiles": "C[C@@H]1OCC2(CCN(c3cnc4c(N5CCCc6c5ccnc6C#N)n[nH]c4n3)CC2)[C@@H]1N", "note": "[Compound 228]", "IC50": "< 1"}, {"smiles": "C[C@@H]1OCC2(CCN(c3cnc4c(N5CCC(=C(F)F)c6ccccc65)n[nH]c4n3)CC2)[C@@H]1N", "note": "[Compound 231]", "IC50": "< 1"}, {"smiles": "C[C@@H]1OCC2(CCN(c3cnc4c(N5CCCc6c5ccnc6C5CC5)n[nH]c4n3)CC2)[C@@H]1N", "note": "[Compound 232]", "IC50": "< 1"}, {"smiles": "Cc1nccc2c1CCCN2c1n[nH]c2nc(N3CCC4(CC3)CO[C@@H](C)[C@H]4N)cnc12", "note": "[Compound 233]", "IC50": "< 1"}, {"smiles": "C[C@@H]1OCC2(CCN(c3cnc4c(N5CCNc6ccccc65)n[nH]c4n3)CC2)[C@@H]1N", "note": "[Compound 234]", "IC50": "< 1"}, {"smiles": "CC(=O)N1CCN(c2n[nH]c3nc(N4CCC5(CC4)CO[C@@H](C)[C@H]5N)cnc23)c2ccccc21", "note": "[Compound 235]", "IC50": "< 1"}, {"smiles": "C[C@@H]1OCC2(CCN(c3cnc4c(N5CCCc6c5ccnc6C(F)F)n[nH]c4n3)CC2)[C@@H]1N", "note": "[Compound 236]", "IC50": "< 1"}, {"smiles": "C[C@@H]1OCC2(CCN(c3cnc4c(N5CCCc6nc(C7=CCOCC7)ccc65)n[nH]c4n3)CC2)[C@@H]1N", "note": "[Compound 237]", "IC50": "< 1"}, {"smiles": "C[C@@H]1OCC2(CCN(c3cnc4c(N5CC(=O)N(C)c6ccccc65)n[nH]c4n3)CC2)[C@@H]1N", "note": "[Compound 238]", "IC50": "< 1"}, {"smiles": "C[C@@H]1OCC2(CCN(c3cnc4c(N5CCCc6nc(C7CCOCC7)ccc65)n[nH]c4n3)CC2)[C@@H]1N", "note": "[Compound 239]", "IC50": "< 1"}, {"smiles": "C[C@@H]1OCC2(CCN(c3cnc4c(N5CCCc6c5ccn(C)c6=O)n[nH]c4n3)CC2)[C@@H]1N", "note": "[Compound 240]", "IC50": "< 1"}, {"smiles": "C[C@@H]1OCC2(CCN(c3cnc4c(N5CC(=O)Nc6cnccc65)n[nH]c4n3)CC2)[C@@H]1N", "note": "[Compound 241]", "IC50": "< 1"}, {"smiles": "C[C@@H]1OCC2(CCN(c3cnc4c(N5CCCc6nc(C(N)=O)ccc65)n[nH]c4n3)CC2)[C@@H]1N", "note": "[Compound 243, 5-(6-((3S,4S)-4-amino-3-methyl-2-oxa-8-azaspiro[4.5]decan-8-yl)-1H-pyrazolo[3,4-b]pyrazin-3-yl)-5,6,7,8-tetrahydro-1,5-naphthyridine-2-carboxamide]", "IC50": "< 1"}, {"smiles": "C[C@@H]1OCC2(CCN(c3cnc4c(N5CCCc6c(C(=O)O)cccc65)n[nH]c4n3)CC2)[C@@H]1N", "note": "[Compound 244, 1-(6-((3S,4S)-4-amino-3-methyl-2-oxa-8-azaspiro[4.5]decan-8-yl)-1H-pyrazolo[3,4-b]pyrazin-3-yl)-1,2,3,4-tetrahydroquinoline-5-carboxylic Acid]", "IC50": "< 1"}, {"smiles": "C[C@@H]1OCC2(CCN(c3cnc4c(N5CCCc6nc(-c7ncon7)ccc65)n[nH]c4n3)CC2)[C@@H]1N", "note": "[Compound 246, (3S,4S)-8-(3-(6-(1,2,4-oxadiazol-3-yl)-3,4-dihydro-1,5-naphthyridin-1(2H)-yl)-1H-pyrazolo[3,4-b]pyrazin-6-yl)-3-methyl-2-oxa-8-azaspiro[4.5]decan-4-amine]", "IC50": "< 1"}, {"smiles": "C[C@@H]1OCC2(CCN(c3cnc4c(N5CCNc6ncccc65)n[nH]c4n3)CC2)[C@@H]1N", "note": "[Compound 247]", "IC50": "< 1"}, {"smiles": "C[C@@H]1OCC2(CCN(c3cnc4c(N5CCCc6nc(C#N)ccc65)n[nH]c4n3)CC2)[C@@H]1N", "note": "[Compound 248]", "IC50": "< 1"}, {"smiles": "C[C@@H]1OCC2(CCN(c3cnc4c(N5CCC(C(F)F)c6ccccc65)n[nH]c4n3)CC2)[C@@H]1N", "note": "(stereo partly drawn) [Compound 250]", "IC50": "< 1"}, {"smiles": "C[C@@H]1OCC2(CCN(c3cnc4c(N5CCCc6c(C7CCOCC7)cccc65)n[nH]c4n3)CC2)[C@@H]1N", "note": "[Compound 251]", "IC50": "< 1"}, {"smiles": "C[C@@H]1OCC2(CCN(c3cnc4c(N5CCCc6nc(-n7cccn7)ccc65)n[nH]c4n3)CC2)[C@@H]1N", "note": "[Compound 252]", "IC50": "< 1"}, {"smiles": "COC(=O)n1nc(N2CCCc3ncccc32)c2ncc(N3CCC4(CC3)CO[C@@H](C)[C@H]4N)nc21", "note": "[Compound 253, methyl 6-[(3S,4S)-4-amino-3-methyl-2-oxa-8-azaspiro[4.5]decan-8-yl]-3-(1,2,3,4-tetrahydro-1,5-naphthyridin-1-yl)-1H-pyrazolo[3,4-b]pyrazine-1-carboxylate hydrochloride]", "IC50": "< 1"}, {"smiles": "C[C@@H]1OCC2(CCN(c3cnc4c(N5CCCc6nc(-c7cc[nH]n7)ccc65)n[nH]c4n3)CC2)[C@@H]1N", "note": "[Compound 254, (3S,4S)-8-(3-(6-(1H-pyrazol-3-yl)-3,4-dihydro-1,5-naphthyridin-1(2H)-yl)-1H-pyrazolo[3,4-b]pyrazin-6-yl)-3-methyl-2-oxa-8-azaspiro[4.5]decan-4-amine]", "IC50": "< 1"}, {"smiles": "C[C@@H]1OCC2(CCN(c3cnc4c(N5CCCc6nc(-c7ccnn7C)ccc65)n[nH]c4n3)CC2)[C@@H]1N", "note": "[Compound 255, (3S,4S)-3-methyl-8-{3-[6-(1-methyl-1H-pyrazol-5-yl)-1,2,3,4-tetrahydro-1,5-naphthyridin-1-yl]-1H-pyrazolo[3,4-b]pyrazin-6-yl}-2-oxa-8-azaspiro[4.5]decan-4-amine hydrochloride]", "IC50": "< 1"}, {"smiles": "C[C@@H]1OCC2(CCN(c3cnc4c(N5CCCc6nc(N7CCNCC7)ccc65)n[nH]c4n3)CC2)[C@@H]1N", "note": "[Compound 256, (3S,4S)-3-methyl-8-{3-[6-(piperazin-1-yl)-1,2,3,4-tetrahydro-1,5-naphthyridin-1-yl]-1H-pyrazolo[3,4-b]pyrazin-6-yl}-2-oxa-8-azaspiro[4.5]decan-4-amine dihydrochloride]", "IC50": "< 1"}]}]}
